In US12545639B2, “3-substituted phenylamidine compounds, preparation and use thereof” (PI INDUSTRIES LTD., priority 2019, dated 2026):

Tests used:
[1] = tested on: Septoria lycopersici/Corynespora cassicola (CORYCA); test: Septoria lycopersici/Corynespora cassicola (CORYCA) (leaf spot of tomato) in vitro test, radial growth on potato dextrose agar; type: cell-based; details: 168 h, 300 ppm in potato dextrose agar, 25° C., 70% relative humidity, seven days, read-out: control compared to the untreated check (radial growth)
Pyricularia oryzae = test: microbe, parasite or virus in culture; type: cell-based; details: 168 h, read-out: control compared to the untreated check (radial growth)
Colletotrichum capsici = Colletotrichum capsici (anthracnose) in vitro test, radial growth on potato dextrose agar; type: cell-based; details: Colletotrichum truncatum, 168 h; 300 ppm in potato dextrose agar; 25° C., 60% relative humidity, seven days; read-out: control compared to the untreated check (radial growth)
Alternaria solani = Alternaria solani (early blight of tomato/potato) in vitro test, radial growth on potato dextrose agar; type: cell-based; details: 168 h, 300 ppm in potato dextrose agar, 25° C., 60% relative humidity, seven days, read-out: control compared to the untreated check (radial growth)
Fusarium culmorum = Fusarium culmorum (foot rot of cereals) in vitro test, radial growth on potato dextrose agar; type: cell-based; details: 168 h, 300 ppm in potato dextrose agar, 25° C., 60% relative humidity, seven days, read-out: control compared to the untreated check (radial growth)
Method: Compounds were dissolved in 0.3% dimethyl sulfoxide and then added to potato dextrose agar medium just prior to dispensing it into petri dishes. 5 mL medium with the compound in the desired concentration was dispensed into 60 mm sterile petri-plates. After solidification each plate was seeded with a 5 mm size mycelial disc taken from the periphery of an actively growing virulent culture plate. Plates were incubated in growth chambers at 25° C. temperature and 60% relative humidity for seven days and then the radial growth was measured and compared to that of the untreated control.

Rhizoctonia solani = Rhizoctonia solani (rice sheath blight/potato black scurf) in vitro test, radial growth on potato dextrose agar; type: cell-based; details: 168 h, 300 ppm in potato dextrose agar, 25° C., 60% relative humidity, seven days, read-out: control compared to the untreated check (radial growth)
Botrytis cinerea = Botrytis cinerea (gray mold) in vitro test, radial growth on potato dextrose agar; type: cell-based; details: 168 h, 300 ppm in potato dextrose agar, 22° C., 90% relative humidity, seven days, read-out: control compared to the untreated check (radial growth)
Phakopsora pachyrhizi = Phakopsora pachyrhizi test in soybean, preventive, in vivo on plants; details: in Glycine max, read-out: Efficacy (% control), disease severity compared to the untreated check

CCN(C)C=Nc1cc(C)cc(Nc2ccc(Cl)cc2)c1Cl [Compound 59, N′-(2-chloro-3-((4-chlorophenyl)amino)-5-methylphenyl)-N-ethyl-N-methylformimidamide]
≥ 70%: inhibition of growth at 300 ppm [1] | inhibition of growth at 300 ppm (Pyricularia oryzae) | inhibition of growth at 300 ppm (Colletotrichum capsici) | inhibition of growth at 300 ppm (Alternaria solani) | inhibition of growth at 300 ppm (Fusarium culmorum) | inhibition of growth at 300 ppm (Rhizoctonia solani) | inhibition of growth at 300 ppm (Botrytis cinerea) | pest or weed control at 500 ppm (Phakopsora pachyrhizi)

CCN(C)C=Nc1cc(Cl)cc(Cc2ccc(F)cc2)c1C [Compound 124, N′-(5-chloro-3-(4-fluorobenzyl)-2-methylphenyl)-N-ethyl-N-methylformimidamide]
≥ 70%: inhibition of growth at 300 ppm [1] | inhibition of growth at 300 ppm (Pyricularia oryzae) | inhibition of growth at 300 ppm (Colletotrichum capsici) | inhibition of growth at 300 ppm (Alternaria solani) | inhibition of growth at 300 ppm (Fusarium culmorum) | inhibition of growth at 300 ppm (Rhizoctonia solani) | inhibition of growth at 300 ppm (Botrytis cinerea) | pest or weed control at 500 ppm (Phakopsora pachyrhizi)

CCN(C)C=Nc1cc(Cl)cc(Cc2ccc(Cl)cc2)c1C [Compound 126, N′-(5-chloro-3-(4-chlorobenzyl)-2-methylphenyl)-N-ethyl-N-methylformimidamide]
≥ 70%: inhibition of growth at 300 ppm [1] | inhibition of growth at 300 ppm (Pyricularia oryzae) | inhibition of growth at 300 ppm (Colletotrichum capsici) | inhibition of growth at 300 ppm (Alternaria solani) | inhibition of growth at 300 ppm (Fusarium culmorum) | inhibition of growth at 300 ppm (Rhizoctonia solani) | inhibition of growth at 300 ppm (Botrytis cinerea) | pest or weed control at 500 ppm (Phakopsora pachyrhizi)

CCN(C)C=Nc1cc(C)cc(Cc2ccc(Cl)cc2)c1C [Compound 224, N′-(3-(4-chlorobenzyl)-2,5-dimethylphenyl)-N-ethyl-N-methylformimidamide]
≥ 70%: inhibition of growth at 300 ppm [1] | inhibition of growth at 300 ppm (Pyricularia oryzae) | inhibition of growth at 300 ppm (Colletotrichum capsici) | inhibition of growth at 300 ppm (Alternaria solani) | inhibition of growth at 300 ppm (Fusarium culmorum) | inhibition of growth at 300 ppm (Rhizoctonia solani) | inhibition of growth at 300 ppm (Botrytis cinerea) | pest or weed control at 500 ppm (Phakopsora pachyrhizi)

CCN(C)C=Nc1cc(Cl)cc(Cc2ccc(F)c(F)c2)c1C [Compound 129, N′-(5-chloro-3-(3,4-difluorobenzyl)-2-methylphenyl)-N-ethyl-N-methylformimidamide]
≥ 70%: inhibition of growth at 300 ppm [1] | inhibition of growth at 300 ppm (Pyricularia oryzae) | inhibition of growth at 300 ppm (Colletotrichum capsici) | inhibition of growth at 300 ppm (Alternaria solani) | inhibition of growth at 300 ppm (Fusarium culmorum) | inhibition of growth at 300 ppm (Rhizoctonia solani) | inhibition of growth at 300 ppm (Botrytis cinerea) | pest or weed control at 500 ppm (Phakopsora pachyrhizi)

CCN(C)C=Nc1cc(Cl)cc(Cc2ccc(Br)cc2)c1C [Compound 125, N′-(3-(4-bromobenzyl)-5-chloro-2-methylphenyl)-N-ethyl-N-methylformimidamide]
≥ 70%: inhibition of growth at 300 ppm [1] | inhibition of growth at 300 ppm (Pyricularia oryzae) | inhibition of growth at 300 ppm (Colletotrichum capsici) | inhibition of growth at 300 ppm (Alternaria solani) | inhibition of growth at 300 ppm (Fusarium culmorum) | inhibition of growth at 300 ppm (Rhizoctonia solani) | inhibition of growth at 300 ppm (Botrytis cinerea) | pest or weed control at 500 ppm (Phakopsora pachyrhizi)

CCN(C)C=Nc1cc(C)cc(Cc2cccc(C)c2)c1C [Compound 208, N′-(2,5-dimethyl-3-(3-methylbenzyl)phenyl)-N-ethyl-N-methylformimidamide]
≥ 70%: inhibition of growth at 300 ppm [1] | inhibition of growth at 300 ppm (Pyricularia oryzae) | inhibition of growth at 300 ppm (Colletotrichum capsici) | inhibition of growth at 300 ppm (Alternaria solani) | inhibition of growth at 300 ppm (Fusarium culmorum) | inhibition of growth at 300 ppm (Rhizoctonia solani) | inhibition of growth at 300 ppm (Botrytis cinerea) | pest or weed control at 500 ppm (Phakopsora pachyrhizi)

CCN(C)C=Nc1cc(F)cc(Cc2ccc(Br)cc2F)c1C [Compound 236, N′-(3-(4-bromo-2-fluorobenzyl)-5-fluoro-2-methylphenyl)-N-ethyl-N-methylformimidamide]
≥ 70%: inhibition of growth at 300 ppm [1] | inhibition of growth at 300 ppm (Pyricularia oryzae) | inhibition of growth at 300 ppm (Colletotrichum capsici) | inhibition of growth at 300 ppm (Alternaria solani) | inhibition of growth at 300 ppm (Fusarium culmorum) | inhibition of growth at 300 ppm (Rhizoctonia solani) | inhibition of growth at 300 ppm (Botrytis cinerea) | pest or weed control at 500 ppm (Phakopsora pachyrhizi)

CCN(C)C=Nc1cc(C)cc(Cc2ccc(C)cc2)c1Cl [Compound 18, N′-(2-chloro-5-methyl-3-(4-methylbenzyl)phenyl)-N-ethyl-N-methylformimidamide]
≥ 70%: inhibition of growth at 300 ppm [1] | inhibition of growth at 300 ppm (Pyricularia oryzae) | inhibition of growth at 300 ppm (Colletotrichum capsici) | inhibition of growth at 300 ppm (Alternaria solani) | inhibition of growth at 300 ppm (Fusarium culmorum) | inhibition of growth at 300 ppm (Rhizoctonia solani) | inhibition of growth at 300 ppm (Botrytis cinerea) | pest or weed control at 500 ppm (Phakopsora pachyrhizi)

CCN(C)C=Nc1cc(C)cc(Cc2ccc(F)cc2)c1C [Compound 222, N-ethyl-N′-(3-(4-fluorobenzyl)-2,5-dimethylphenyl)-N-methylformimidamide]
≥ 70%: inhibition of growth at 300 ppm [1] | inhibition of growth at 300 ppm (Pyricularia oryzae) | inhibition of growth at 300 ppm (Colletotrichum capsici) | inhibition of growth at 300 ppm (Alternaria solani) | inhibition of growth at 300 ppm (Fusarium culmorum) | inhibition of growth at 300 ppm (Rhizoctonia solani) | inhibition of growth at 300 ppm (Botrytis cinerea) | pest or weed control at 500 ppm (Phakopsora pachyrhizi)

CCN(C)C=Nc1cc(C)cc(Cc2cccc(Cl)c2F)c1Cl [Compound 56, N′-(2-chloro-3-(3-chloro-2-fluorobenzyl)-5-methylphenyl)-N-ethyl-N-methylformimidamide]
≥ 70%: inhibition of growth at 300 ppm [1] | inhibition of growth at 300 ppm (Pyricularia oryzae) | inhibition of growth at 300 ppm (Colletotrichum capsici) | inhibition of growth at 300 ppm (Alternaria solani) | inhibition of growth at 300 ppm (Fusarium culmorum) | inhibition of growth at 300 ppm (Rhizoctonia solani) | inhibition of growth at 300 ppm (Botrytis cinerea) | pest or weed control at 500 ppm (Phakopsora pachyrhizi)

CCN(C)C=Nc1cc(F)cc(Nc2ccc(C(C)(C)C)cc2)c1C [Compound 20, N′-(3-((4-(tert-butyl)phenyl)amino)-5-fluoro-2-methylphenyl)-N-ethyl-N-methylformimidamide]
≥ 70%: inhibition of growth at 300 ppm [1] | inhibition of growth at 300 ppm (Pyricularia oryzae) | inhibition of growth at 300 ppm (Colletotrichum capsici) | inhibition of growth at 300 ppm (Alternaria solani) | inhibition of growth at 300 ppm (Fusarium culmorum) | inhibition of growth at 300 ppm (Rhizoctonia solani) | inhibition of growth at 300 ppm (Botrytis cinerea) | pest or weed control at 500 ppm (Phakopsora pachyrhizi)

CCN(C)C=Nc1cc(OC)cc(Cc2ccc(C)cc2)c1C [Compound 263, N-ethyl-N′-(5-methoxy-2-methyl-3-(4-methylbenzyl)phenyl)-N-methylformimidamide]
≥ 70%: inhibition of growth at 300 ppm [1] | inhibition of growth at 300 ppm (Pyricularia oryzae) | inhibition of growth at 300 ppm (Colletotrichum capsici) | inhibition of growth at 300 ppm (Alternaria solani) | inhibition of growth at 300 ppm (Fusarium culmorum) | inhibition of growth at 300 ppm (Rhizoctonia solani) | inhibition of growth at 300 ppm (Botrytis cinerea) | pest or weed control at 500 ppm (Phakopsora pachyrhizi)

CCN(C)C=Nc1cc(C)cc(Cc2ccc(Br)cc2)c1C [Compound 223, N′-(3-(4-bromobenzyl)-2,5-dimethylphenyl)-N-ethyl-N-methylformimidamide]
≥ 70%: inhibition of growth at 300 ppm [1] | inhibition of growth at 300 ppm (Pyricularia oryzae) | inhibition of growth at 300 ppm (Colletotrichum capsici) | inhibition of growth at 300 ppm (Alternaria solani) | inhibition of growth at 300 ppm (Fusarium culmorum) | inhibition of growth at 300 ppm (Rhizoctonia solani) | inhibition of growth at 300 ppm (Botrytis cinerea) | pest or weed control at 500 ppm (Phakopsora pachyrhizi)

CCN(C)C=Nc1cc(Cl)cc(Nc2cccc(Cl)c2)c1C [Compound 163, N′-(5-chloro-3-((3-chlorophenyl)amino)-2-methylphenyl)-N-ethyl-N-methylformimidamide]
≥ 70%: inhibition of growth at 300 ppm [1] | inhibition of growth at 300 ppm (Pyricularia oryzae) | inhibition of growth at 300 ppm (Colletotrichum capsici) | inhibition of growth at 300 ppm (Alternaria solani) | inhibition of growth at 300 ppm (Fusarium culmorum) | inhibition of growth at 300 ppm (Rhizoctonia solani) | inhibition of growth at 300 ppm (Botrytis cinerea)

CCN(C)C=Nc1cc(C)cc(Cc2ccccc2C)c1Cl [Compound 12, N′-(2-chloro-5-methyl-3-(2-methylbenzyl)phenyl)-N-ethyl-N-methylformimidamide]
≥ 70%: inhibition of growth at 300 ppm [1] | inhibition of growth at 300 ppm (Pyricularia oryzae) | inhibition of growth at 300 ppm (Colletotrichum capsici) | inhibition of growth at 300 ppm (Alternaria solani) | inhibition of growth at 300 ppm (Fusarium culmorum) | inhibition of growth at 300 ppm (Rhizoctonia solani) | inhibition of growth at 300 ppm (Botrytis cinerea)

CCN(C)C=Nc1cc(C)cc(Cc2ccccc2C)c1C [Compound 4, N′-(2,5-dimethyl-3-(2-methylbenzyl)phenyl)-N-ethyl-N-methylformimidamide]
≥ 70%: inhibition of growth at 300 ppm [1] | inhibition of growth at 300 ppm (Pyricularia oryzae) | inhibition of growth at 300 ppm (Colletotrichum capsici) | inhibition of growth at 300 ppm (Alternaria solani) | inhibition of growth at 300 ppm (Fusarium culmorum) | inhibition of growth at 300 ppm (Rhizoctonia solani) | inhibition of growth at 300 ppm (Botrytis cinerea)

CCN(C)C=Nc1cc(F)cc(Nc2ccc(F)c(F)c2)c1C [Compound 73, N′-(3-((3,4-difluorophenyl)amino)-5-fluoro-2-methylphenyl)-N-ethyl-N-methylformimidamide]
≥ 70%: inhibition of growth at 300 ppm [1] | inhibition of growth at 300 ppm (Pyricularia oryzae) | inhibition of growth at 300 ppm (Colletotrichum capsici) | inhibition of growth at 300 ppm (Alternaria solani) | inhibition of growth at 300 ppm (Fusarium culmorum) | inhibition of growth at 300 ppm (Rhizoctonia solani) | inhibition of growth at 300 ppm (Botrytis cinerea)

CCN(C)C=Nc1cc(C)cc(Cc2cccc(Cl)c2)c1C [Compound 3, N′-(3-(3-chlorobenzyl)-2,5-dimethylphenyl)-N-ethyl-N-methylformimidamide]
≥ 70%: inhibition of growth at 300 ppm [1] | inhibition of growth at 300 ppm (Pyricularia oryzae) | inhibition of growth at 300 ppm (Colletotrichum capsici) | inhibition of growth at 300 ppm (Alternaria solani) | inhibition of growth at 300 ppm (Fusarium culmorum) | inhibition of growth at 300 ppm (Rhizoctonia solani) | inhibition of growth at 300 ppm (Botrytis cinerea)
